In PubChem BioAssay (NCI):
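Protocol summary: plate cells (96-well), add compound at 5 concentrations, incubate 48 h, interpolate endpoints linearly. TGI marks complete inhibition of growth.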

System: MDA-MB-231 breast
Assay: growth of human tumour cells (NCI), 48 h

SMILES	TGI [µM]
CCN(CCCl)c1cc(CN(C)C)cc(NC(=O)c2ccc(C(=O)Nc3cc(CN(C)C)cc(N(CC)CCCl)c3)cc2)c1	1.36
C=CCN1C(=O)/C(=C/c2ccc(Cl)cc2)N=C1SC/C=C/C	> 100
CC12Nc3c(Cl)cc(Cl)cc3N1C(=O)c1ccccc12 (configuration not stated)	> 100
O=C1C2=Cc3ccccc3CCN2c2ccccc21	> 59.4
CC(=O)OCC1OC(NC(=S)Nn2c(=O)[nH]c3ccccc3c2=O)C(OC(C)=O)C(OC(C)=O)C1OC(C)=O (configuration not stated)	> 100
CN(CCC(=O)N1CC(CCl)c2ccc([N+](=O)[O-])cc21)CCC(=O)N1CC(CCl)c2ccc([N+](=O)[O-])cc21 (configuration not stated)	44.5
C[C@]12CC[C@H]3[C@@H](CCC4=CC(=O)CC[C@@H]43)[C@@H]1CC[C@]2(O)C(N)=O	> 100
C/C(Cl)=N/OC(=O)Nc1ccc(F)c([N+](=O)[O-])c1	37.4
O=c1[nH]c(=O)n(C/C=C/CO)nc1Br	> 100
O=C1CC(Br)c2c(Br)sc(Br)c21 (configuration not stated)	35.1
CC[C@]12C=CCN3CC[C@@]4(c5cc(Br)c(OC)c([N+](=O)[O-])c5N(C)[C@H]4[C@@](O)(C(=O)OC)[C@@H]1OC(C)=O)[C@@H]32	> 100
COC(=O)C1C2OC(C)(C)OC2CN1S(=O)(=O)c1ccc(C)cc1 (configuration not stated)	> 100
COc1ccc(CNc2ccn(C3OC(CO)C(O)C3O)c(=O)n2)cc1 (configuration not stated)	> 100
O=C1CSC(c2ccccc2)N1c1nc2cc3sc(N4C(=O)CSC4c4ccccc4)nc3cc2s1 (configuration not stated)	> 100
Cc1nc(N)c(N2CCN(S(N)(=O)=O)CC2)c(=O)[nH]1	> 100
CC(C)OC(=O)c1ccc(NCC2=CC(=O)C=CC2=O)cc1	25
CC(C)C[C@H]1[C@@H](OCc2ccccc2)COS(=O)(=O)N1[C@H](C)c1ccccc1	> 100
O=c1[nH]c2cccc([N+](=O)[O-])c2c(=O)n1-c1ccc(Cl)cc1	34.3
O=C1c2ccccc2-c2nnc(-c3ccc([N+](=O)[O-])cc3)cc21	> 10
C1C2CC3CC1CC(c1nn4c(C56CC7CC(CC(C7)C5)C6)nnc4s1)(C2)C3	> 100
Cn1c(-c2cccs2)cc(-c2cccs2)c1-c1cccs1	> 100
CCSc1nnc(Sc2c3ccccc3nc3ccccc23)s1	56.6
N=c1c2ccccc2nc2oc3cc([N+](=O)[O-])ccc3n12	60.5
CCOC(=O)CC[C@H](N)C(=O)N[C@@H](Cc1ccc(N(CCCl)CCCl)cc1)C(=O)OCC	4.41

System: MDA-MB-435
Assay: growth of human tumour cells (NCI), 48 h

SMILES	TGI [µM]
CCN(CCCl)c1cc(CN(C)C)cc(NC(=O)c2ccc(C(=O)Nc3cc(CN(C)C)cc(N(CC)CCCl)c3)cc2)c1	0.48
C=CCN1C(=O)/C(=C/c2ccc(Cl)cc2)N=C1SC/C=C/C	> 100
CC12Nc3c(Cl)cc(Cl)cc3N1C(=O)c1ccccc12 (configuration not stated)	> 100
O=C1C2=Cc3ccccc3CCN2c2ccccc21	> 56.3
CC(=O)OCC1OC(NC(=S)Nn2c(=O)[nH]c3ccccc3c2=O)C(OC(C)=O)C(OC(C)=O)C1OC(C)=O (configuration not stated)	> 100
CN(CCC(=O)N1CC(CCl)c2ccc([N+](=O)[O-])cc21)CCC(=O)N1CC(CCl)c2ccc([N+](=O)[O-])cc21 (configuration not stated)	27.5
C[C@]12CC[C@H]3[C@@H](CCC4=CC(=O)CC[C@@H]43)[C@@H]1CC[C@]2(O)C(N)=O	> 100
C/C(Cl)=N/OC(=O)Nc1ccc(F)c([N+](=O)[O-])c1	30.8
O=c1[nH]c(=O)n(C/C=C/CO)nc1Br	> 100
O=C1CC(Br)c2c(Br)sc(Br)c21 (configuration not stated)	39.1
CC[C@]12C=CCN3CC[C@@]4(c5cc(Br)c(OC)c([N+](=O)[O-])c5N(C)[C@H]4[C@@](O)(C(=O)OC)[C@@H]1OC(C)=O)[C@@H]32	> 100
COC(=O)C1C2OC(C)(C)OC2CN1S(=O)(=O)c1ccc(C)cc1 (configuration not stated)	> 100
COc1ccc(CNc2ccn(C3OC(CO)C(O)C3O)c(=O)n2)cc1 (configuration not stated)	> 100
O=C1CSC(c2ccccc2)N1c1nc2cc3sc(N4C(=O)CSC4c4ccccc4)nc3cc2s1 (configuration not stated)	> 100
Cc1nc(N)c(N2CCN(S(N)(=O)=O)CC2)c(=O)[nH]1	> 100
CC(C)OC(=O)c1ccc(NCC2=CC(=O)C=CC2=O)cc1	26.4
CC(C)C[C@H]1[C@@H](OCc2ccccc2)COS(=O)(=O)N1[C@H](C)c1ccccc1	> 100
O=c1[nH]c2cccc([N+](=O)[O-])c2c(=O)n1-c1ccc(Cl)cc1	25.5
O=C1c2ccccc2-c2nnc(-c3ccc([N+](=O)[O-])cc3)cc21	> 10
C1C2CC3CC1CC(c1nn4c(C56CC7CC(CC(C7)C5)C6)nnc4s1)(C2)C3	> 100
Cn1c(-c2cccs2)cc(-c2cccs2)c1-c1cccs1	> 100
CCSc1nnc(Sc2c3ccccc3nc3ccccc23)s1	> 61.8
N=c1c2ccccc2nc2oc3cc([N+](=O)[O-])ccc3n12	> 100
CCOC(=O)CC[C@H](N)C(=O)N[C@@H](Cc1ccc(N(CCCl)CCCl)cc1)C(=O)OCC	2.83

System: SF-295 CNS
Assay: growth of human tumour cells (NCI), 48 h

SMILES	TGI [µM]
CCN(CCCl)c1cc(CN(C)C)cc(NC(=O)c2ccc(C(=O)Nc3cc(CN(C)C)cc(N(CC)CCCl)c3)cc2)c1	1.21
C=CCN1C(=O)/C(=C/c2ccc(Cl)cc2)N=C1SC/C=C/C	> 100
CC12Nc3c(Cl)cc(Cl)cc3N1C(=O)c1ccccc12 (configuration not stated)	> 100
O=C1C2=Cc3ccccc3CCN2c2ccccc21	98.3
CC(=O)OCC1OC(NC(=S)Nn2c(=O)[nH]c3ccccc3c2=O)C(OC(C)=O)C(OC(C)=O)C1OC(C)=O (configuration not stated)	> 100
CN(CCC(=O)N1CC(CCl)c2ccc([N+](=O)[O-])cc21)CCC(=O)N1CC(CCl)c2ccc([N+](=O)[O-])cc21 (configuration not stated)	39.5
C[C@]12CC[C@H]3[C@@H](CCC4=CC(=O)CC[C@@H]43)[C@@H]1CC[C@]2(O)C(N)=O	> 100
C/C(Cl)=N/OC(=O)Nc1ccc(F)c([N+](=O)[O-])c1	> 100
O=c1[nH]c(=O)n(C/C=C/CO)nc1Br	> 100
